Source: ChEMBL document CHEMBL5143550, “Thiol- and Disulfide-Containing Vancomycin Derivatives Against Bacterial Resistance and Biofilm Formation” (2021)
Values after ≈ are worked out from the molar mass of the structure shown.

What was measured:
Assay type in all cases: functional
[1] = tested on: Enterococcus faecalis; assay: Antibacterial activity against VanB-resistant Enterococcus faecalis ATCC 51299 assessed as inhibition of colony formation in BHIG medium incubated for 24 hrs by resazurin assay
[2] = tested on: Clostridioides difficile; assay: Antibacterial activity against Clostridium difficile ATCC 43255 assessed as inhibition of bacterial growth by standard broth microdilution susceptibility method
[3] = tested on: Staphylococcus aureus; assay: Antibacterial activity against heterogenous vancomycin-intermediate Staphylococcus aureus ATCC NRS24 assessed as inhibition of bacterial growth by standard broth microdilution susceptibility method
[4] = tested on: Enterococcus gallinarum; assay: Antibacterial activity against VanC-resistant Enterococcus gallinarum ATCC 700221 assessed as inhibition of bacterial growth by standard broth microdilution susceptibility method
[5] = tested on: Staphylococcus aureus; assay: Antibacterial activity against methicillin-resistant Staphylococcus aureus ATCC 43300 assessed as inhibition of bacterial growth by standard broth microdilution susceptibility method
[6] = tested on: Enterococcus faecalis; assay: Antibiofilm activity against VanB-resistant Enterococcus faecalis ATCC 51299 assessed as inhibition of biofilm formation in BHIG medium incubated for 24 hrs by resazurin assay
[7] = tested on: Enterococcus faecalis; assay: Antibacterial activity against VanB-resistant Enterococcus faecalis ATCC 51299 assessed as inhibition of bacterial growth by standard broth microdilution susceptibility method
[8] = tested on: Streptococcus pneumoniae; assay: Antibacterial activity against […] assessed as inhibition of bacterial growth by standard broth microdilution susceptibility method
[9] = tested on: Moraxella catarrhalis; assay: Antibacterial activity against Moraxella catarrhalis ATCC 8193 assessed as inhibition of bacterial growth by standard broth microdilution susceptibility method
[10] = tested on: Staphylococcus aureus; assay: Antibacterial activity against Staphylococcus aureus ATCC 25923 assessed as inhibition of bacterial growth by standard broth microdilution susceptibility method
[11] = tested on: Enterococcus faecalis; assay: Antibacterial activity against VanB-resistant Enterococcus faecalis ATCC 51299 assessed as inhibition of bacterial growth in BHIG medium incubated for 24 hrs by resazurin assay
[12] = tested on: Enterococcus faecium; assay: Antibacterial activity against VanA-resistant Enterococcus faecium MMX0485 assessed as inhibition of bacterial growth by standard broth microdilution susceptibility method
[13] = tested on: Staphylococcus aureus; assay: Antibacterial activity against vancomycin-intermediate Staphylococcus aureus ATCC NRS1 assessed as inhibition of bacterial growth by standard broth microdilution susceptibility method
[14] = tested on: Enterococcus faecalis; assay: Antibiofilm activity against VanB-resistant Enterococcus faecalis ATCC 51299 assessed as inhibition of biofilm formation by measuring decrease in RFU in BHIG medium incubated for 24 hrs by resazurin assay
[15] = tested on: Staphylococcus aureus; assay: Potency index, ratio of vancomycin MIC to test compound MIC for antibacterial activity against heterogenous vancomycin-intermediate Staphylococcus aureus ATCC NRS24 assessed as inhibition of bacterial growth by standard broth microdilution susceptibility method
[16] = tested on: Enterococcus faecalis; assay: Potency index, ratio of vancomycin MIC to test compound MIC for antibacterial activity against VanB-resistant Enterococcus faecalis ATCC 51299 assessed as inhibition of bacterial growth by standard broth microdilution susceptibility method
[17] = tested on: Enterococcus faecium; assay: Potency index, ratio of vancomycin MIC to test compound MIC for antibacterial activity against VanA-resistant Enterococcus faecium MMX0485 assessed as inhibition of bacterial growth by standard broth microdilution susceptibility method
[18] = tested on: Staphylococcus aureus; assay: Potency index, ratio of vancomycin MIC to test compound MIC for antibacterial activity against vancomycin-intermediate Staphylococcus aureus ATCC NRS1 assessed as inhibition of bacterial growth by standard broth microdilution susceptibility method

CN[C@H](CC(C)C)C(=O)N[C@H]1C(=O)N[C@@H](CC(N)=O)C(=O)N[C@H]2C(=O)N[C@H]3C(=O)N[C@H](C(=O)N[C@H](C(=O)NCCSSc4ccccn4)c4cc(O)cc(O)c4-c4cc3ccc4O)[C@H](O)c3ccc(c(Cl)c3)Oc3cc2cc(c3O[C@@H]2O[C@H](CO)[C@@H](O)[C@H](O)[C@H]2O[C@H]2C[C@](C)(N)[C@H](O)[C@H](C)O2)Oc2ccc(cc2Cl)[C@H]1O
Activity [1]: 16 µg/mL
MIC [2]: 0.5 µg/mL (≈ 0.309 µM)
MIC [3]: 4 µg/mL (≈ 2.47 µM)
MIC [4]: 8 µg/mL (≈ 4.95 µM)
MIC [5]: 2 µg/mL (≈ 1.24 µM)
MBIC [6]: 16 µg/mL
MIC [7]: 16 µg/mL (≈ 9.89 µM)
MIC [8]: 0.5 µg/mL (≈ 0.309 µM)
MIC [9]: > 32 µg/mL
MIC [10]: 4 µg/mL (≈ 2.47 µM)
inhibition (INH) [11]: 100%
MIC [12]: 8 µg/mL (≈ 4.95 µM)
MIC [13]: 4 µg/mL (≈ 2.47 µM)
inhibition (INH) [14]: 99%

CN[C@H](CC(C)C)C(=O)N[C@H]1C(=O)N[C@@H](CC(N)=O)C(=O)N[C@H]2C(=O)N[C@H]3C(=O)N[C@H](C(=O)N[C@H](C(=O)NCCSSCCNC(=O)CCCCC4CCSS4)c4cc(O)cc(O)c4-c4cc3ccc4O)[C@H](O)c3ccc(c(Cl)c3)Oc3cc2cc(c3O[C@@H]2O[C@H](CO)[C@@H](O)[C@H](O)[C@H]2O[C@H]2C[C@](C)(N)[C@H](O)[C@H](C)O2)Oc2ccc(cc2Cl)[C@H]1O (stereo partly specified)
Activity [1]: 16 µg/mL
MIC [2]: 0.5 µg/mL (≈ 0.282 µM)
MIC [3]: 2 µg/mL (≈ 1.13 µM)
MIC [4]: 8 µg/mL (≈ 4.52 µM)
MIC [5]: 2 µg/mL (≈ 1.13 µM)
MBIC [6]: 16 µg/mL
MIC [7]: 4 µg/mL (≈ 2.26 µM)
MIC [8]: 0.25 µg/mL (≈ 0.141 µM)
MIC [9]: 8 µg/mL (≈ 4.52 µM)
MIC [10]: 2 µg/mL (≈ 1.13 µM)
inhibition (INH) [11]: 100%
MIC [12]: > 32 µg/mL
MIC [13]: 2 µg/mL (≈ 1.13 µM)
inhibition (INH) [14]: 100%

CCCCCCSSCCNC(=O)[C@H]1NC(=O)[C@H]2NC(=O)[C@H](NC(=O)[C@@H]3NC(=O)[C@H](CC(N)=O)NC(=O)[C@H](NC(=O)[C@@H](CC(C)C)NC)[C@H](O)c4ccc(c(Cl)c4)Oc4cc3cc(c4O[C@@H]3O[C@H](CO)[C@@H](O)[C@H](O)[C@H]3O[C@H]3C[C@](C)(N)[C@H](O)[C@H](C)O3)Oc3ccc(cc3Cl)[C@H]2O)c2ccc(O)c(c2)-c2c(O)cc(O)cc21
Activity [1]: 2 µg/mL
MIC [2]: 0.5 µg/mL (≈ 0.308 µM)
MIC [3]: 0.5 µg/mL (≈ 0.308 µM)
Ratio [15]: 16
MIC [4]: 4 µg/mL (≈ 2.46 µM)
MIC [5]: 0.12 µg/mL (≈ 0.0739 µM)
MBIC [6]: 2 µg/mL
MIC [7]: 0.25 µg/mL (≈ 0.154 µM)
Ratio [16]: 16
MIC [8]: 0.06 µg/mL (≈ 0.0369 µM)
MIC [9]: 2 µg/mL (≈ 1.23 µM)
MIC [10]: 0.12 µg/mL (≈ 0.0739 µM)
inhibition (INH) [11]: 100%
MIC [12]: 16 µg/mL (≈ 9.85 µM)
Ratio [17]: 16
MIC [13]: 0.5 µg/mL (≈ 0.308 µM)
inhibition (INH) [14]: 100%
Ratio [18]: 16

CCCCCCCCCCCSSCCNC(=O)[C@H]1NC(=O)[C@H]2NC(=O)[C@H](NC(=O)[C@@H]3NC(=O)[C@H](CC(N)=O)NC(=O)[C@H](NC(=O)[C@@H](CC(C)C)NC)[C@H](O)c4ccc(c(Cl)c4)Oc4cc3cc(c4O[C@@H]3O[C@H](CO)[C@@H](O)[C@H](O)[C@H]3O[C@H]3C[C@](C)(N)[C@H](O)[C@H](C)O3)Oc3ccc(cc3Cl)[C@H]2O)c2ccc(O)c(c2)-c2c(O)cc(O)cc21
Activity [1]: 2 µg/mL
MIC [2]: 0.12 µg/mL (≈ 0.0708 µM)
MIC [3]: 1 µg/mL (≈ 0.59 µM)
Ratio [15]: 16
MIC [4]: 4 µg/mL (≈ 2.36 µM)
MIC [5]: 1 µg/mL (≈ 0.59 µM)
MBIC [6]: 2 µg/mL
MIC [7]: 0.25 µg/mL (≈ 0.148 µM)
Ratio [16]: 16
MIC [8]: 0.25 µg/mL (≈ 0.148 µM)
MIC [9]: 0.5 µg/mL (≈ 0.295 µM)
MIC [10]: 1 µg/mL (≈ 0.59 µM)
inhibition (INH) [11]: 99%
MIC [12]: 2 µg/mL (≈ 1.18 µM)
Ratio [17]: 16
MIC [13]: 0.5 µg/mL (≈ 0.295 µM)
inhibition (INH) [14]: 92%
Ratio [18]: 16

CN[C@H](CC(C)C)C(=O)N[C@H]1C(=O)N[C@@H](CC(N)=O)C(=O)N[C@H]2C(=O)N[C@H]3C(=O)N[C@H](C(=O)N[C@H](C(=O)O)c4cc(O)cc(O)c4-c4cc3ccc4O)[C@H](O)c3ccc(c(Cl)c3)Oc3cc2cc(c3O[C@@H]2O[C@H](CO)[C@@H](O)[C@H](O)[C@H]2O[C@H]2C[C@](C)(N)[C@H](O)[C@H](C)O2)Oc2ccc(cc2Cl)[C@H]1O [VANCOMYCIN]
Activity [1]: 64 µg/mL
MIC [2]: 0.12 µg/mL (≈ 0.0828 µM)
MIC [3]: 16 µg/mL (≈ 11 µM)
MIC [4]: 8 µg/mL (≈ 5.52 µM)
MBIC [6]: 64 µg/mL
MIC [7]: 16 µg/mL (≈ 11 µM)
MIC [8]: 0.12 µg/mL (≈ 0.0828 µM)
MIC [9]: > 32 µg/mL
inhibition (INH) [11]: 100%
MIC [12]: > 128 µg/mL
MIC [13]: 8 µg/mL (≈ 5.52 µM)
inhibition (INH) [14]: 98%
